Consider 3 molecules from patent US20130324461A1, “METHODS AND COMPOSITIONS FOR PREVENTING OR TREATING OBESITY” (priority 2010, published 2013).

Common to all, as to type: in vivo
A short description of assay [1]: Weight gain of mice on high-fat diet treated with various A2AR agonists (Example 5, FIG. 5). Particulars: male C57BL/6 mice. As to the method:
Mice receiving a high-fat diet were treated with the A2AR agonists 2-[4-(2-aminoethylaminocarbonylethyl)phenylethylamino]-5′-N-ethylcarboxamidoadenosine (APEC) bistrifluoroacetic acid or 2 5′-N-ethylcarboxamidoadenosine (NECA). Male C57BL/6 mice (n=5) were provided a high-fat diet beginning at day 0. Also beginning on day 0, the mice were treated with daily subcutaneous injection of A2AR agonist. APEC was administered at 0.25 mg/kg/day, and NECA at 0.02 mg/kg/day.

Assay [2] is described as follows: Body weight of mice on high-fat diet, treated or untreated with A2AR agonist CGS21680 (Example 3, FIG. 3 left panel). As to the method:
Mice were untreated or treated with the A2AR agonist CGS21680 (Tocris) at different time points. CGS21680 (Tocris) was injected s.c. at a dose of 0.5 mg/kg daily either from week 9 to week 13, from week 13 to week 19, or from week 9 to week 19, as indicated in the FIG. 3 legends. Male mice (8 mice per group) were fed a high-fat diet (where 60% of calories are derived from fat) or low-fat diet (where 10% of calories are derived from fat) and the weight of the mice was measured. Special diets were obtained from Research Diets (New Brunswick, N.J.). One group of mice received no A2AR agonist at all (represented by diamonds in the graphs of FIG. 4); another group of mice was received CGS21680 only from week 9 to 13 (triangles); another group of mice received CGS21680 only from week 13 to 19 (squares); another group of mice received CGS21680 from week 9 to 19 (crosses). […] Some mice in the group that received no A2AR agonist at all (diamonds) almost doubled their weight between weeks 9 and 19, reaching up to 50 g total weight. […] Mice that were not injected from week 9 to 13 (squares) reached almost 40 g of weight by week 13.

The next assay deals with serum leptin. Nature of the assay: Serum leptin levels by ELISA after A2AR agonist injection (Example 4, FIG. 4). Particulars: 8 week old female C57BL/6 mice, 0.5 mg/kg s.c., after 1 and 2 h, p<0.05. As for the experimental part: To elucidate the mechanism by which A2AR agonists reduce weight gain, serum leptin levels were quantified in mice treated with an A2AR agonist. 8 week old Female C57BL/6 mice received subcutaneous injection of the A2AR agonist CGS21680 (0.5 mg/kg). After 1 and 2 h, serum leptin levels were measured by ELISA. […] The data shown in FIG. 4 represent average±SD (n=4). The statistical significance was calculated by Student's t-test: *, p<0.05.
A general note: ELISA stands for enzyme-linked immunosorbent assay.

The nature of assay [3]: Body weight of mice on low-fat diet, treated or untreated with A2AR agonist CGS21680 (Example 3, FIG. 3 right panel). As for the experimental part: Mice were untreated or treated with the A2AR agonist CGS21680 (Tocris) at different time points. CGS21680 (Tocris) was injected s.c. at a dose of 0.5 mg/kg daily either from week 9 to week 13, from week 13 to week 19, or from week 9 to week 19, as indicated in the FIG. 3 legends. Male mice (8 mice per group) were fed a high-fat diet (where 60% of calories are derived from fat) or low-fat diet (where 10% of calories are derived from fat) and the weight of the mice was measured. Special diets were obtained from Research Diets (New Brunswick, N.J.). One group of mice received no A2AR agonist at all (represented by diamonds in the graphs of FIG. 4); another group of mice was received CGS21680 only from week 9 to 13 (triangles); another group of mice received CGS21680 only from week 13 to 19 (squares); another group of mice received CGS21680 from week 9 to 19 (crosses). […] Mice in the group that received no A2AR agonist at all (diamonds) gained a small amount of weight reaching up to ˜35 g by week 19. This is much less than the weight reached by mice on the high-fat diet (˜50 g). […] Mice that were not injected with from week 9 to 13 (squares) did gain weight by week 13.

As for `CCNC(=O)[C@H]1O[C@@H](n2cnc3c(N)ncnc32)[C@H](O)[C@@H]1O` [NECA, 5′-N-ethylcarboxamidoadenosine], in assay [1] (high-fat diet from day 0, daily s.c. 0.02 mg/kg/day), the “weight gain compared to the control group” value is listed as “dramatic reduction in weight gain”.
Turning to `CCNC(=O)[C@H]1O[C@@H](n2cnc3c(N)nc(NCCc4ccc(CCC(=O)NCCN)cc4)nc32)[C@H](O)[C@@H]1O` [APEC, 2-[4-(2-aminoethylaminocarbonylethyl)phenylethylamino]-5′-N-ethylcarboxamidoadenosine], the “weight gain compared to the control group” value in assay [1] (high-fat diet from day 0, daily s.c. 0.25 mg/kg/day) is listed as “dramatic reduction in weight gain”.
With `CCNC(=O)[C@H]1O[C@@H](n2cnc3c(N)nc(NCCc4ccc(CCC(=O)O)cc4)nc32)[C@H](O)[C@@H]1O` [CGS21680, 3-[4-[2-[[6-amino-9-[(2R,3R,4S,5S)-5-(ethylcarbamoyl)-3,4-dihydroxy-oxolan-2-yl]purin-2-yl]amino]ethyl]phenyl]propanoic acid], the weight gain result in assay [2] (male mice, high-fat diet (60% of calories from fat), 0.5 mg/kg s.c. daily from week 9 to week 19) is “gained little or no weight”; in assay [3] (male mice, low-fat diet (10% of calories from fat), 0.5 mg/kg s.c. daily from week 9 to week 19), “gained very little weight”. In assay [2] (male mice, high-fat diet, 0.5 mg/kg s.c. daily only from week 9 to 13), the “weight gain between weeks 9 and 13” value is recorded as “gained essentially no weight”. Moreover, the “further weight gain after start of injections” value in assay [2] (male mice, high-fat diet, 0.5 mg/kg s.c. daily only from week 13 to 19) is “Essentially no further weight gain”; in assay [3] (male mice, low-fat diet, 0.5 mg/kg s.c. daily only from week 13 to 19), “essentially no more weight gain”. Moreover, the body weight gain result in assay [2] (mice treated continuously (week 9 to 19), regardless of high-fat or low-fat diet) was “minimal”. The serum leptin levels result with serum leptin is given as “significantly increased”. Besides, the “weight gain until week 13” value in assay [3] (male mice, low-fat diet, 0.5 mg/kg s.c. daily only from week 9 to 13) is listed as “gained essentially no weight”. The “effect on weight gain (overall statement)” value in assay [3] (mice on low fat diet, 0.5 mg/kg s.c. daily) was “prevented or limited weight gain”.
